Test results published in patent publication US11339151B2, “Aliphatic acid amide derivative” (Sumitomo Dainippon Pharma Co., Ltd., priority 2019, dated 2022).
pIC50, pKi: −log10 of the molar value.

Columns and labels:
[1] = target: T1, human 5-HT2A receptor (Homo sapiens (Human), UniProt P28223); assay: Test 2: antagonist activity for human 5-HT2A receptor (aequorin luminescence, CHO-K1 cells); format: cell-based; settings: Gα16
Procedure: (§1) Test 2: Evaluation of Antagonist Activity for Human 5-HT2A Receptor and Human 5-HT7 Receptor
(§2) Aequorin, Gα 16 protein, and each receptor were transiently expressed in CHO-K1 cells (Chinese hamster ovary). The cells were cultivated in a CO2 incubator at 37° C. overnight, seeded into a 384-well plate, and stood at room temperature for 2 hours. Each compound dissolved in DMSO was added thereto, and changes in luminescence were measured by FDSS/μCELL drug discovery screening support system (Hamamatsu Photonics K.K.). As for antagonist activity, inhibitory activity of each compound was calculated by setting the luminescence level of wells to which 10 μmol/L endogenous ligand was added as 100%.

[2] = target: T2, human 5-HT7 receptor (Homo sapiens (Human), UniProt P34969); assay: Test 1: binding activity for human 5-HT7 receptor ([3H]SB-269970, CHO cell membrane fraction); settings: [3H]SB-269970, room temperature 60 minutes
T2 sequence (P34969 whole entry): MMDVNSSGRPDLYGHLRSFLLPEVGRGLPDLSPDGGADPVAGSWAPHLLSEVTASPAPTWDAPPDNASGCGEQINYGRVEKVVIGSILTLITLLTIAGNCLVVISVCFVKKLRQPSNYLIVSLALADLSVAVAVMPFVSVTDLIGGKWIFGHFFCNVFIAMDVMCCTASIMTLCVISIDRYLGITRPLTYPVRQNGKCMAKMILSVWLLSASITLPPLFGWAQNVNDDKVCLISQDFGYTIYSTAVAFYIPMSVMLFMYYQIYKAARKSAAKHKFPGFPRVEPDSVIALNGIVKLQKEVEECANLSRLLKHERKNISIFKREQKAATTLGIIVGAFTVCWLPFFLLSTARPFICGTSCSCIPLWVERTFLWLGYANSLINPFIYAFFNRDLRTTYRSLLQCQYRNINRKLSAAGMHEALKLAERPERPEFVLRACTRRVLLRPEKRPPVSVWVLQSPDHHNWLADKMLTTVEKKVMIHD
Procedure: (§3) Ki value was evaluated from dissociation constant which was calculated from saturated binding tests, and a substrate concentration, and it was used as an index for binding affinity.

[3] = Test 9: intracerebral transferability in rats; format: in vivo; settings: brain and plasma (unbound); SD or WKY rat, subcutaneous or oral, 0.5, 1 or 2 hours; unbound brain/plasma ratio
[4] = Test 3-1: metabolic stability test in human hepatic microsome; format: in vitro ADME; settings: microsome 0.1 mg/mL, test compound 0.1 μmol/L, 37° C., 30 minutes
Procedure: Test 3-1: Metabolic Stability Test in Human Hepatic Microsome
(§4) The metabolic stability of the present compound in human hepatic microsome was evaluated as mentioned below. Human hepatic microsome was obtained from Xenontech. Human hepatic microsome, NADPH, and each test compound were mixed in 25 mmol/L phosphate buffer solution (pH 7.4) to reach the following concentrations as shown below, and the mixture was incubated at 37° C. for 30 minutes. • Human hepatic microsome: 0.1 mg/mL • NADPH: 3.2 mmol/L • Test compound: 0.1 μmol/L
(§5) The residual ratio of test compound in each sample after 30 minutes was measured by LC-MS, and the metabolic stability in human hepatic microsome was calculated from the following formula. Metabolic stability in human hepatic microsome (mL/min/mg protein)=−LN (residual ratio)/30/0.1

[5] = target: human D2 receptor (Homo sapiens (Human), UniProt P14416); assay: Test 1: binding activity for human D2 receptor ([3H]Spiperone, CHO cell membrane fraction); settings: for pKi: [3H]Spiperone, room temperature 60 minutes; for D2 Ki/5-HT2A Ki / D2 Ki/5-HT7 Ki: selectivity ratio
Chain of human D2 receptor (P14416 whole entry): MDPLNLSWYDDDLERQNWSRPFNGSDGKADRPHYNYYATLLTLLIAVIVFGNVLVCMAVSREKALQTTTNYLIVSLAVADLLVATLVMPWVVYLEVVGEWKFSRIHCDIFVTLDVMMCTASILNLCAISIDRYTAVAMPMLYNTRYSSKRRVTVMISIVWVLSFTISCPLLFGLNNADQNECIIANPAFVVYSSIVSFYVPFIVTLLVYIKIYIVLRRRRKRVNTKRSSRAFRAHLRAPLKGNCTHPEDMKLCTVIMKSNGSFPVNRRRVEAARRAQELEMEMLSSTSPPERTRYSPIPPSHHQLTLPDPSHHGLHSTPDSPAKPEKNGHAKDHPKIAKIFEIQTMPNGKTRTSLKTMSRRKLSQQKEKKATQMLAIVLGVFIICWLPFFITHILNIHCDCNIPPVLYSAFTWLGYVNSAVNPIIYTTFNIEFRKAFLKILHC
Procedure: as §3

[6] = target: T2, human 5-HT7 receptor; assay: Test 2: antagonist activity for human 5-HT7 receptor (aequorin luminescence, CHO-K1 cells); format: cell-based; settings: Gα16
Procedure: as §1, §2

[7] = target: hERG channel (Homo sapiens (Human), UniProt Q12809); assay: Test 5: inhibitory activity for hERG channel (whole cell patch clamp, hERG-CHO cells); format: cell-based; settings: for pIC50: hERG-CHO cells, auto patch clamp; for hERG inhibitory IC50 (nmol/L)/5-HT2A Ki (nmol/L) / hERG inhibitory IC50 (nmol/L)/5-HT7 Ki (nmol/L): ratio
Chain of hERG channel (Q12809 whole entry): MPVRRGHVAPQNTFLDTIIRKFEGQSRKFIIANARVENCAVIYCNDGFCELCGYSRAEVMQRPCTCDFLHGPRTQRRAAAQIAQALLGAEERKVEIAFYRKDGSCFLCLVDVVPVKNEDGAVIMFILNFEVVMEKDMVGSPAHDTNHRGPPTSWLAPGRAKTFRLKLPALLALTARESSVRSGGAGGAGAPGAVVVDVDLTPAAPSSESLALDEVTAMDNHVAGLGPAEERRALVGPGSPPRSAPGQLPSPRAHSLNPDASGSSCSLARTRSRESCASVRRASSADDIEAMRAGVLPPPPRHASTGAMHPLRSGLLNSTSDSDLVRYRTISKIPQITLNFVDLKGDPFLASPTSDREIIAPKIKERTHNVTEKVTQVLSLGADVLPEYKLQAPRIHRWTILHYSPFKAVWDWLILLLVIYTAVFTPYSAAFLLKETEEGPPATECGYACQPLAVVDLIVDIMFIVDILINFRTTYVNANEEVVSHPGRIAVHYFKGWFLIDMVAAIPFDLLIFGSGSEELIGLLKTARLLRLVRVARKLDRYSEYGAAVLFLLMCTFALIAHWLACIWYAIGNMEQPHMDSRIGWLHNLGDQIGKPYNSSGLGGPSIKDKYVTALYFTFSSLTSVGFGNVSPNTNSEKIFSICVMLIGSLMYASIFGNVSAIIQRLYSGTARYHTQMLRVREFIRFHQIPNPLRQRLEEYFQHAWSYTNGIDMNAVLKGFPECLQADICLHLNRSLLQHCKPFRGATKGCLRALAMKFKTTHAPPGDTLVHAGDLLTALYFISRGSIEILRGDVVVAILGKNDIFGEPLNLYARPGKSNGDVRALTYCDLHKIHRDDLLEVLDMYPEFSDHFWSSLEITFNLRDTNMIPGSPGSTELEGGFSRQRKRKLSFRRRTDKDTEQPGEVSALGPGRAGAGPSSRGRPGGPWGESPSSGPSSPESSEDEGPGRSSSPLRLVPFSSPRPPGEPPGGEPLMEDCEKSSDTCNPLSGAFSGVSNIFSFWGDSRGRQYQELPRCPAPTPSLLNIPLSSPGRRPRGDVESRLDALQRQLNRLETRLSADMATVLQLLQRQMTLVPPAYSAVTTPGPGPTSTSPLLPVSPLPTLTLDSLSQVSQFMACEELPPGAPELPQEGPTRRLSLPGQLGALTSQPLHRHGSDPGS
Procedure: Test 5: Evaluation of Inhibitory Activity for hERG Channel
Inhibitory activity of the present compound for hERG channel was measured by whole cell patch clamp method with an auto patch clamp system using CHO cells in which hERG channel involved in human rapidly activating delayed rectifier potassium current (IKr) was forcibly expressed.
hERG-CHO cells purchased from ChanTest Cop. were cultured in a CO2 incubator at 37° C., and dissociated from a flask with trypsin shortly before the measurement of hERG current to prepare a cell suspension.
The cell suspension, the extracellular fluid, the intracellular fluid, and the measurement plate were set in an auto patch clamp system, and hERG current was measured by whole cell patch clamp method. […] Each pulse interval was 15 seconds. The data analysis was carried out with Qube Assay Software (Sophion Sophion). The test was carried out by applying incrementally 4 concentrations of each test compound, and the average of the maximum peak tail currents which were obtained from the last 3 stimulations in each concentration was determined as the evaluated data.

[8] = target: T1, human 5-HT2A receptor; assay: Test 1: binding activity for human 5-HT2A receptor ([3H]Ketanserin, CHO cell membrane fraction); settings: room temperature 60 minutes
Procedure: as §3

[9] = Test 10: hepatotoxic risk, dansyl glutathione (dGSH) trapping assay; format: in vitro ADME; settings: human hepatic microsome, 37° C., 60 minutes; N.D. means below detection limit
Procedure: Test 10: Evaluation of Hepatotoxic Risk (Dansyl Glutathione (dGSH) Trapping Assay)
The present compound was metabolized in hepatic microsome, and from the resulted metabolite, reactive metabolite which reacts with dancyl glutathione (dGSH) was detected and quantified as the following method. Measurement was carried out with a screening robot (Tecan) for metabolic reaction, and with a fluorescence detection UPLC system (Waters) for metabolite-dGSH binding concentration.
The present compound was dissolved in DMSO to prepare 10 mmol/L test compound solution. 7.6 mL of potassium phosphate buffer (500 mmol/L, pH 7.4), 1.9 mL of human hepatic microsome (Xenotech, 20 mg protein/mL), and 1.27 mL of pure water were mixed to prepare a microsome solution. To 3.78 mL of the microsome solution was added 0.67 mL of pure water to prepare a microsome (dGSH(−)) solution. To 6.48 mL of the microsome solution was added 1.14 mL of the dGSH solution (20 mmol/L) to prepare a microsome (dGSH(+)) solution. […] 33 mg of tris(2-carboxyethyl)phosphine (TECP) was dissolved in 115 mL of methanol to prepare a reaction stop solution.
12 μL of the test compound solution was mixed with 388 μL of pure water, and the mixture was dispensed in 50 μL each into 6 wells of a 96-well plate. […] To the “reaction group” and “unreacted group” was added the microsome (dGSH(+)) solution, and to the “dGSH-free group” was added the microsome (dGSH(−)) solution in 50 μL each. To the “reaction group” and “dGSH-free group” was added to the cofactor solution, and to the “unreacted group” was added pure water in 50 μL each. After incubated at 37° C. for 60 minutes, the reaction stop solution was added in 450 μL each to stop the reaction. […]
Metabolite-dGSH binding concentration was measured by the following conditions, using a fluorescence detection UPLC system. […]
Fluorescence intensity was corrected with the composition of organic solvent at the time of elution because fluorescence intensity changes depending on the composition of organic solvent.

[10] = Test 3-2: metabolic stability test in human hepatic microsome; format: in vitro ADME; settings: microsome 0.5 or 1.0 mg/mL, test compound 0.1 μmol/L, 30 or 60 minutes
Procedure: Test 3-2: Metabolic Stability Test in Human Hepatic Microsome
as §4, with “For more accurate evaluation of the metabolic stability in human hepatic microsome, the metabolic” for “The metabolic”, “evaluated at an appropriate concentration of human hepatic microsome” for “evaluated”, “for 60” for “for 30”, “microsome: 0.5 or 1.0” for “microsome: 0.1”, “• NAPDH:” for “• NADPH:”
as §5, with “of a” for “of”, “30 or 60” for “30”, “ratio)/reaction time/concentration of human hepatic microsome” for “ratio)/30/0.1”

[11] = Test 4: predictive test of human half life; settings: calculated from rat distribution volume, serum unbound fraction and Test 3-2 stability
Procedure: Test 4: Predictive Test of Human Half Life
The present compound was intravenously administered to a rat as an aqueous solution of 0.01 mol/L hydrochloric acid. Blood was collected on 5 minutes, 15 minutes, 30 minutes, 1 hour, 2 hours, 4 hours, 6 hours, and 24 hours after the administration. Plasma was obtained from the collected blood, the drug concentration in plasma was measured by LC-MS, and the distribution volume of rat was calculated from the transition of the concentration.
The unbound fraction rate of the present compound in human or rat serum was measured by equilibrium dialysis method.
The half-life in human was calculated according to the following formula using the results of the distribution volume of rat, the unbound fraction rate in human or rat serum, and the metabolic stability in human hepatic microsome obtained in Test 3-2.

T1 sequence (P28223 whole entry): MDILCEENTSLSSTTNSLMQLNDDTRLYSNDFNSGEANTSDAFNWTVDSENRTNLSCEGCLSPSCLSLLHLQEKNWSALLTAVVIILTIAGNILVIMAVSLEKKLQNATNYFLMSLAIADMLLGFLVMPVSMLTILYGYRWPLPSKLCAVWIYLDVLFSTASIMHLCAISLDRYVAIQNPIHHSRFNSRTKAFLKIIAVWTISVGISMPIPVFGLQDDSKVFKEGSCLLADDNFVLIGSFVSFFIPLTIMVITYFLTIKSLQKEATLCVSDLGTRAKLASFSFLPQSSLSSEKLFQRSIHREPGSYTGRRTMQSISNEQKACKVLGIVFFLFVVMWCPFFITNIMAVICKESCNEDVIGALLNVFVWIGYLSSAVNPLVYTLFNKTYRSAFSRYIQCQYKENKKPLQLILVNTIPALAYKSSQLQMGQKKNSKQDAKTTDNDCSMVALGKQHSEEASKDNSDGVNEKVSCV

Metabolic stability in human hepatic microsome [4]	pIC50 [6]	Metabolic stability in human hepatic microsome [10]	Predicted half-life [11]	SMILES	pIC50 [1]	pKi [2]	Kp uu at 2 h [3]	pKi [5]	pIC50 [7]	hERG inhibitory IC50 (nmol/L)/5-HT2A Ki (nmol/L) [7]	hERG inhibitory IC50 (nmol/L)/5-HT7 Ki (nmol/L) [7]	pKi [8]	Metabolite-dGSH binding concentration [9]	D2 Ki/5-HT2A Ki [5]	D2 Ki/5-HT7 Ki [5]
0.054 mL/min/mg protein	7.09			CCN(CCN1CCC(c2noc3cc(F)c(C)cc23)CC1)C(=O)[C@H](C)O [Example 13]					5.54				0.214 µM		
<0.05 mL/min/mg protein	7.21	0.016 mL/min/mg protein	6 h	CCN(CCN1CCC(c2noc3cc(F)ccc23)CC1)S(=O)(=O)CCO [Example 51, N-Ethyl-N-{2-[4-(6-fluoro-1,2-benzoisoxazol-3-yl)piperidin-1-yl]ethyl}-2-hydroxyethane-1-sulfonamide]		8.72		6.51	5.16						
<0.05 mL/min/mg protein	7.18	0.0025 mL/min/mg protein	27 h	CCN(CCN1CCC(c2noc3cc(F)ccc23)CC1)C(=O)CCO [Example 17, N-Ethyl-N-{2-[4-(6-fluoro-1,2-benzoisoxazol-3-yl)piperidin-1-yl]ethyl}-3-hydroxypropanamide]					5.55						
<0.05 mL/min/mg protein		0.018 mL/min/mg protein	3 h	CCN(CCN1CCC(c2noc3cc(F)ccc23)CC1)C(=O)[C@H](C)O [Example 16, (2S)—N-Ethyl-N-{2-[4-(6-fluoro-1,2-benzoisoxazol-3-yl)piperidin-1-yl]ethyl}-2-hydroxypropanamide]					5.32						
<0.05 mL/min/mg protein	7.39			CCN(CCN1CCC(c2noc3cc(F)ccc23)CC1)C(=O)C1(O)CC1 [Example 24]	8.15				5.26	5203	4988		7.645 µM		
<0.05 mL/min/mg protein	7.14			CCN(CCN1CCN(c2noc3cc(F)ccc23)CC1)C(=O)C(C)O (centres unmarked) [Example 27]		7.95		5.66	< 5.00						
<0.05 mL/min/mg protein	7.37			CCN(CCN1CCC(c2c[nH]c3ccccc23)CC1)C(=O)CCO [Example 47]		8.05		6.34	5.27						
<0.05 mL/min/mg protein	7.55			CCN(CCN1CCC(c2c[nH]c3cc(F)ccc23)CC1)S(=O)(=O)CCO [Example 62]		8.55		6.98	5.27						

SMILES	Metabolic stability in human hepatic microsome [4]	pIC50 [6]	Metabolic stability in human hepatic microsome [10]	Predicted half-life [11]	pIC50 [1]	pKi [2]	Kp uu at 2 h [3]	pKi [5]	pIC50 [7]	hERG inhibitory IC50 (nmol/L)/5-HT2A Ki (nmol/L) [7]	hERG inhibitory IC50 (nmol/L)/5-HT7 Ki (nmol/L) [7]	pKi [8]	Metabolite-dGSH binding concentration [9]	D2 Ki/5-HT2A Ki [5]	D2 Ki/5-HT7 Ki [5]
CCN(CCN1CCC(c2noc3cc(F)ccc23)CC1)C(=O)C(O)COC (centres unmarked) [Example 18, N-Ethyl-N-{2-[4-(6-fluoro-1,2-benzoisoxazol-3-yl)piperidin-1-yl]ethyl}-2-hydroxy-3-methoxypropanamide]	<0.05 mL/min/mg protein	7.14			7.24	8.43	0.56	6.70	5.39	1637	1097	8.60			
CCN(CCN1CCC(c2noc3cc(F)ccc23)CC1)S(=O)(=O)C(C)CO (centres unmarked) [Example 52]		6.75			6.02	6.48		< 5.00				6.53		>34	>30
CCN(CCN1CCC(c2c[nH]c3ccccc23)CC1)S(=O)(=O)CCO [Example 57]	0.06 mL/min/mg protein	7.00			7.25	8.06		6.68							
CCN(CCN1CCC(c2noc3cc(F)ccc23)CC1)C(=O)C(O)CNC(C)=O (centres unmarked) [Example 71, 3-Acetamide-N-ethyl-N-{2-[4-(6-fluoro-1,2-benzoisoxazol-3-yl)piperidin-1-yl]ethyl}-2-hydroxypropanamide]	<0.05 mL/min/mg protein									>4452			0.132 µM	99	36
CCN(CCN1CCC(n2ccc3cc(F)ccc32)CC1)C(=O)C(C)O (centres unmarked) [Example 50]	<0.05 mL/min/mg protein	7.09			7.31	7.87		< 6.00							
